# Experimental data as given in patent US8420049B2 (priority 2002, dated 2013).
# Assays:
# [1] = In vitro metabolism of [^11C] AMP in human whole blood or plasma; type: in vitro ADME
# Description: Human plasma was prepared from heparinized blood of a healthy volunteer. 50 μL of [^11C] AMP (39.96-70.82 GBq/μmol, 1080-1914 mCi/μmol) was added to 1 mL of plasma or heparinized whole blood at 37° C. In one series of studies, dipyridamole was added to give a concentration of 500 μM in whole blood. One hundred μL samples, which were removed from the incubation mixture at 0, 2, 5, 10, 20, and 30 minutes, were added to 350 μL of water at 0° C. and acidified with 50 μL of 5N perchloric acid. After standing for 5 minutes on ice, the protein precipitate was removed by centrifugation at 13,000×g for 1 minute in a microcentrifuge. The acid soluble supernatant was analyzed by HPLC. Chromatographic separation of the labeled adenosine phosphate esters used a Phenomenex Synergi Polar RP column (4.6×250 mm, 10 micron particle size) eluted with 0.1N perchloric acid at 2 mL/min. Radioactivity was detected by a dual BGO flow detector (Bioscan Inc., Washington D.C.). Optical detection was at 254 nm. Data from both detectors was collected and analyzed by Laura software (Bioscan Inc., Washington D.C.).
# [2] = Ex vivo distribution of [^11C] AMP in mice; parameters: species or system mouse; conditions: CD-1 mice, mean ± SD (n = 3)
# Description: Non-fasted, male CD-1 mice (25 g) were injected via the tail vein with 15.5 MBq (418 μCi, 2.57 μg/kg) of [^11C] AMP. Three mice each were sacrificed by cervical dislocation at 5, 30, and 60 minutes after injection. The lungs, heart, kidneys, liver, spleen, intestine, stomach, and brain were quickly removed and put on ice. One femur and samples of thigh muscle and blood were also collected. The organs were weighed, and the tissue radioactivity measured with an automated gamma counter (LKB Wallac 1282 Compugamma CS Universal Gamma Counter). The percent injected dose per gram of tissue (% ID/g) was calculated by comparison with samples of a standard dilution of the initial dose. All measurements were corrected for decay.
# [3] = Effect of dipyridamole treatment on uptake and distribution of [^11C] AMP in mice; type: in vivo, mouse; conditions: 30 mg/kg dipyridamole ip 60 minutes before [^11C] AMP
# Description: The effect of dipyridamole treatment on the uptake and distribution of [^11C] AMP, nine mice were given a 30 mg/kg dose of dipyridamole ip 60 minutes prior to administration of the radiotracer was determined. Three mice each were sacrificed 5, 30, and 60 minutes after injection of 23.8 MBq (642 μCi, 8.7 μg/kg) of [^11C] AMP. All tissue samples were handled as described above.
structure (smiles),measurement,setting,value
"Nc1n[11cH]nc2c1ncn2[C@@H]1O[C@H](COP(=O)(O)O)[C@@H](O)[C@H]1O [[^11C] AMP, [^11C] Adenosine 5′-Monophosphate]",conversion of the tracer to adenosine,"[1]; dipyridamole (500 μM) treated whole human blood, after 5 minutes",> 60%
same,conversion to ATP,"[1]; whole human blood, 37° C., after 10 minutes",> 60%
same,Ex vivo mouse biodistribution,"[2]; Blood, 5 minutes after iv injection",27.94 ± 8.21 % ID/g
same,Ex vivo mouse biodistribution,"[2]; Blood, 30 minutes after iv injection",27.34 ± 0.41 % ID/g
same,Ex vivo mouse biodistribution,"[2]; Blood, 60 minutes after iv injection",24.34 ± 4.13 % ID/g
same,Ex vivo mouse biodistribution,"[2]; Bone, 5 minutes after iv injection",2.35 ± 0.68 % ID/g
same,Ex vivo mouse biodistribution,"[2]; Bone, 30 minutes after iv injection",2.57 ± 0.34 % ID/g
same,Ex vivo mouse biodistribution,"[2]; Bone, 60 minutes after iv injection",3.21 ± 0.48 % ID/g
same,Ex vivo mouse biodistribution,"[2]; Brain, 5 minutes after iv injection",0.78 ± 0.18 % ID/g
same,Ex vivo mouse biodistribution,"[2]; Brain, 30 minutes after iv injection",1.06 ± 0.19 % ID/g
same,Ex vivo mouse biodistribution,"[2]; Brain, 60 minutes after iv injection",0.80 ± 0.26 % ID/g
same,Ex vivo mouse biodistribution,"[2]; Heart, 5 minutes after iv injection",20.09 ± 3.24 % ID/g
same,Ex vivo mouse biodistribution,"[2]; Heart, 30 minutes after iv injection",18.07 ± 5.19 % ID/g
same,Ex vivo mouse biodistribution,"[2]; Heart, 60 minutes after iv injection",20.47 ± 2.87 % ID/g
same,Ex vivo mouse biodistribution,"[2]; Intestine, 5 minutes after iv injection",1.74 ± 0.41 % ID/g
same,Ex vivo mouse biodistribution,"[2]; Intestine, 30 minutes after iv injection",1.80 ± 0.50 % ID/g
same,Ex vivo mouse biodistribution,"[2]; Intestine, 60 minutes after iv injection",2.17 ± 1.06 % ID/g
same,Ex vivo mouse biodistribution,"[2]; Kidneys, 5 minutes after iv injection",8.88 ± 3.82 % ID/g
same,Ex vivo mouse biodistribution,"[2]; Kidneys, 30 minutes after iv injection",9.31 ± 2.88 % ID/g
same,Ex vivo mouse biodistribution,"[2]; Kidneys, 60 minutes after iv injection",6.80 ± 4.10 % ID/g
same,Ex vivo mouse biodistribution,"[2]; Liver, 5 minutes after iv injection",7.56 ± 3.98 % ID/g
same,Ex vivo mouse biodistribution,"[2]; Liver, 30 minutes after iv injection",2.99 ± 0.10 % ID/g
same,Ex vivo mouse biodistribution,"[2]; Liver, 60 minutes after iv injection",3.53 ± 0.55 % ID/g
same,Ex vivo mouse biodistribution,"[2]; Lungs, 5 minutes after iv injection",32.37 ± 4.52 % ID/g
same,Ex vivo mouse biodistribution,"[2]; Lungs, 30 minutes after iv injection",29.52 ± 5.42 % ID/g
same,Ex vivo mouse biodistribution,"[2]; Lungs, 60 minutes after iv injection",38.48 ± 3.63 % ID/g
same,Ex vivo mouse biodistribution,"[2]; Muscle, 5 minutes after iv injection",2.14 ± 0.61 % ID/g
same,Ex vivo mouse biodistribution,"[2]; Muscle, 30 minutes after iv injection",3.67 ± 0.54 % ID/g
same,Ex vivo mouse biodistribution,"[2]; Muscle, 60 minutes after iv injection",3.63 ± 1.04 % ID/g
same,Ex vivo mouse biodistribution,"[2]; Spleen, 5 minutes after iv injection",2.96 ± 1.49 % ID/g
same,Ex vivo mouse biodistribution,"[2]; Spleen, 30 minutes after iv injection",4.75 ± 0.67 % ID/g
same,Ex vivo mouse biodistribution,"[2]; Spleen, 60 minutes after iv injection",4.71 ± 1.06 % ID/g
same,Ex vivo mouse biodistribution,"[2]; Stomach, 5 minutes after iv injection",1.98 ± 0.36 % ID/g
same,Ex vivo mouse biodistribution,"[2]; Stomach, 30 minutes after iv injection",1.12 ± 0.25 % ID/g
same,Ex vivo mouse biodistribution,"[2]; Stomach, 60 minutes after iv injection",2.10 ± 0.98 % ID/g
OCCN(CCO)c1nc(N2CCCCC2)c2nc(N(CCO)CCO)nc(N3CCCCC3)c2n1 [dipyridamole],effect on amount of tracer in the blood,[3],did not affect
same,effect on uptake of [^11C] radiotracer in the lungs,[3]; 60 minutes after injection,significantly decreased
